Reference: patent US20110144331A1, “Cinnoline Compounds for the Treatment of Anxiety, Cognitive and Mood Disorders” (AstraZeneca AB, priority 2005, published 2011)

What was measured:
[1] = target: human Melatonin receptor 1 (MT1) (Homo sapiens, UniProt P48039); test: MT1 GTPγ35S-SPA Assay (Method II); settings: compound used for normalization
Description: Solid compounds were solubilized at 10 mM in DMSO; then 1:3 further diluted in DMSO in 96-well U-bottom plates using PlateMate on the assay day. 2 μl of diluted compounds were transferred to Opti-assay-plates.
The cell pellets were homogenized using Polytron; and the cell membranes were prepared fro GTPγS assay.
The cell pellets were homogenized with Polytron in ice-cold buffer: 20 mM HEPES, 3 mM MgCl2, 1 mM EGTA, pH7.4. (Freshly add protease inhibitor cocktail tables from Roche). The samples were centrifuged at 18,500 rpm for 30 mins at 4° C. in Sorvall SS-34 rotor. The membrane pellets were collected and washed with the ice-cold buffer. The samples were centrifuged at 18,500 rpm for 30 mins at 4° C. again. The membranes were resuspended in the ice-cold buffer with protease inhibitors. The protein concentration of the membrane was determined. The membranes were aliquoted and stored at −80° C.
Human MT1/HEK293 F membrane (10 μg/well) was mixed with WGA-SPA beads (300 μg/well) and GDP (10 μM) in certain volume of Lazareno assay buffer (20 mM HEPES, 100 mM NaCl, 10 mM MgCl2, pH7.4). […] The assay plates were measured in TopCount to capture the data within 4 hours. […]
Compounds were evaluated for their agonist potency (EC50) and efficacy (Emax). […] Compound's % activity was calculated according to the 100% and 0% activities defined on the same plate as the sample data. […]

MT1 Receptor = MT1 Receptor (Homo sapiens, UniProt P48039); test: MT1 Receptor Binding
[2] = target: T1, human α1β2γ2 GABAA receptor (Homo sapiens, UniProt P14867+P18507); test: Two-electrode voltage-clamp in Xenopus oocytes, potentiation of GABA EC10 current, GABAA1; assay type: cell-based; settings: percentage potentiation of GABA EC10 current divided by that of diazepam control
T1 construct: expressed in transfected cells; host or cells: Xenopus laevis oocytes injected with capped cRNA
Description: (§1) GABAA receptors were heterologously expressed in Xenopus oocytes by injecting cRNA corresponding to human α1, α2, α3, α5, β2, β3 and γ2 subunits of the GABAA receptor genes. The specific subunit combinations (subtypes) were as follows: α1β2γ2, α2β3γ2, α3β3γ2, and α5β3γ2. The EC10 of GABA was approximated for each cell. Stability of GABA-mediated (EC10) current was established. Modulatory effect of test compound was determined and compared across subtypes. […] Thus, the assay can characterize modulatory effects and determine subtype selectivity of test compounds on major subtypes of GABAA receptors.
(§2) Surgically removed ovarian lobes were teased out in OR2 solution (82 NaCl, 2.5 KCl, 5 HEPES, 1.5 NaH2PO4, 1 MgCl2, 0.1 EDTA, in mM, pH 7.4). The oocytes were defolliculated by incubation in 25 mL OR2 containing 0.2% collagenase 1A (SIGMA) two times for about 60 minutes on a platform shaker and stored in Leibovitz's L-15 medium. Oocytes were injected the following day in 0.5× Leibovitz's L-15 medium containing […] gentamycin, 10 units/ml penicillin, and […] streptomycin.
(§3) Capped cRNAs from the linearized vectors containing human α1, β2 and γ2 subunits of the GABAA receptor genes were mixed in ratio of 1:1:30. Oocytes were injected with 25-50 nL of mixed RNA with an appx molar ratio for α1, β2, and γ2 as 1:1:10. Oocyte recordings were done 2-10 days after injection. The same methods apply to subtypes derived from α2β2γ2, α3β3γ2, and α5β3γ2, except for 1:1:1 ratio was used for α, β, and γ subunits.
(§4) All measurements were done in a medium containing ND-96 (96 NaCl, 2 KCl, 1.8 CaCl2.2H2O, 1 MgCl2.6H2O, 5 HEPES, in mM, pH 7.5). Two-electrode voltage-clamp recording was carried out using OpusXpress amplifier (Axon Instruments, Foster City, Calif.), which allows simultaneous recording from 8 oocytes. Oocytes were impaled with two electrodes of 1-2 MΩ tip resistance when filled with 3M KCl. Recordings were begun when membrane potential became stable at potentials negative to −50-−60 mV. Membrane potential was held at −60 mV. […] The concentration of GABA corresponded to the EC10 value calculated for each oocyte. The modulator pulses started 30 s before the GABA pulse so as to allow preincubation with the modulator. A set of 3 pulses with just GABA without modulator was given prior to the modulator-containing pulses to define the baseline GABA response. Two oocytes per each experiment were dedicated to observe the effect of diazepam on GABA response to ensure the presence of γ2 subunit in the GABAA pentameric complex, which imparts diazepam sensitivity to the complex.
(§5) Current amplitude (i) was measured from baseline to peak using Clampfit (Axon Inst., Foster City, Calif.). Potentiation was calculated as percent change from the baseline GABA current flux 100×(imod/icontrol)−1) where imod=current mediated by modulator+GABA and icontrol=current mediated by GABA alone. […] Similarly, a value of −50% potentiation means the presence of modulator caused a 50% decrease in the control current. Various other data shown here were fitted and plotted using GraphPad Prism (GraphPad Software, Inc. San Diego, Calif.). The percentage potentiation was converted to relative potentiation by dividing it with percentage potentiation value obtained from the same assay with diazepam as a control.

[3] = target: T2, human α2β3γ2 GABAA receptor (Homo sapiens, UniProt P18507+P47869); test: Two-electrode voltage-clamp in Xenopus oocytes, potentiation of GABA EC10 current, GABAA2; assay type: cell-based; settings: percentage potentiation of GABA EC10 current divided by that of diazepam control
T2 construct: expressed in transfected cells; host or cells: Xenopus laevis oocytes injected with capped cRNA (α:β:γ 1:1:1)
Description: as §1, §2, §3, §4, §5

T1 sequence (P14867 28-456): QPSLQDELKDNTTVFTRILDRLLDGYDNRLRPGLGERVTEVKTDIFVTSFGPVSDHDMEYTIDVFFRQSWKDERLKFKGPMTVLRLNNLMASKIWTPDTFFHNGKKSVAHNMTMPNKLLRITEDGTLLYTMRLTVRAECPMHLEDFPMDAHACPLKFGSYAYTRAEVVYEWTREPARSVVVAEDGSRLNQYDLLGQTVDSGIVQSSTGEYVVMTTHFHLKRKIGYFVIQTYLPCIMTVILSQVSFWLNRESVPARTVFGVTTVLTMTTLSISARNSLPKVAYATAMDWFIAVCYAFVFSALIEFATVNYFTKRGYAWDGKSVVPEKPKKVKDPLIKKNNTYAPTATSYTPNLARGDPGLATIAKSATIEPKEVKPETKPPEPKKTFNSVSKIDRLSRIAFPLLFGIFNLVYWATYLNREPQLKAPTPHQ
T1 sequence (P47870 25-512 partner limits assumed): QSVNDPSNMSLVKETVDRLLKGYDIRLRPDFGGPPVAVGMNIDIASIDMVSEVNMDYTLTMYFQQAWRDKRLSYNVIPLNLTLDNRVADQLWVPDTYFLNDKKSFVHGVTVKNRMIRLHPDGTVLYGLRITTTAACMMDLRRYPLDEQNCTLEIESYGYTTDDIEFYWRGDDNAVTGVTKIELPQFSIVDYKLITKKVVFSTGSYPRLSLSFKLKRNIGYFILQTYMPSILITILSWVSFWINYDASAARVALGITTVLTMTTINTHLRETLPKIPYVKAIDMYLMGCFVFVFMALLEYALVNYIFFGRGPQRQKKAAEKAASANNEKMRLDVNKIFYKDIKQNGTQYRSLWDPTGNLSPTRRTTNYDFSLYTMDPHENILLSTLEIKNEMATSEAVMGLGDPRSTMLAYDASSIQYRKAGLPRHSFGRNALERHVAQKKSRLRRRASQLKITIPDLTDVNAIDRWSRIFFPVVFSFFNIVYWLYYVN
T1 sequence (P18507 40-475): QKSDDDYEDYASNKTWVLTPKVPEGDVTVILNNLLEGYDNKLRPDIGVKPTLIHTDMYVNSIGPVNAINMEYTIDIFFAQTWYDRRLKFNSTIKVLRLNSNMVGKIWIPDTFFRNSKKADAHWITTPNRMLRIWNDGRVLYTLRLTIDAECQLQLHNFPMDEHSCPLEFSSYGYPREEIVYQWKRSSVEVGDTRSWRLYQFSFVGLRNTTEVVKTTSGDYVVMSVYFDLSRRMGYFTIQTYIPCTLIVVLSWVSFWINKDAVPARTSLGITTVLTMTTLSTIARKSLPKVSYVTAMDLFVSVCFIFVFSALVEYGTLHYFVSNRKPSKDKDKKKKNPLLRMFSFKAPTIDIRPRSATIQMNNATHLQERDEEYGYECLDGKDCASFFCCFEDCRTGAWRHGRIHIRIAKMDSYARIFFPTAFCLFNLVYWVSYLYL
T2 sequence (P47869 29-451): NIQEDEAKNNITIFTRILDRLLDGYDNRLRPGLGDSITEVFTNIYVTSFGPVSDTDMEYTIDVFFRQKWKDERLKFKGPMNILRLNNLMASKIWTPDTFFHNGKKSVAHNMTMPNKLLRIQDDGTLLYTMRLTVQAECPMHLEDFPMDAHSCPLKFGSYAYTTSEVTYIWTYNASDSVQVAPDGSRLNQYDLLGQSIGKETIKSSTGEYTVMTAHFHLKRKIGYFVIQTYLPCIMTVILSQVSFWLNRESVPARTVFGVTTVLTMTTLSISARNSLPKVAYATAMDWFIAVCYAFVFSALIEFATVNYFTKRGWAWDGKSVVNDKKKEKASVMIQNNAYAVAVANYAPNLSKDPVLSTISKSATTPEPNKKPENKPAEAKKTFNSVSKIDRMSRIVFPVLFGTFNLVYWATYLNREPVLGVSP
T2 sequence (P18507 40-475): as the sequence (P18507 40-475) above
T2 sequence (P28472 26-473 partner): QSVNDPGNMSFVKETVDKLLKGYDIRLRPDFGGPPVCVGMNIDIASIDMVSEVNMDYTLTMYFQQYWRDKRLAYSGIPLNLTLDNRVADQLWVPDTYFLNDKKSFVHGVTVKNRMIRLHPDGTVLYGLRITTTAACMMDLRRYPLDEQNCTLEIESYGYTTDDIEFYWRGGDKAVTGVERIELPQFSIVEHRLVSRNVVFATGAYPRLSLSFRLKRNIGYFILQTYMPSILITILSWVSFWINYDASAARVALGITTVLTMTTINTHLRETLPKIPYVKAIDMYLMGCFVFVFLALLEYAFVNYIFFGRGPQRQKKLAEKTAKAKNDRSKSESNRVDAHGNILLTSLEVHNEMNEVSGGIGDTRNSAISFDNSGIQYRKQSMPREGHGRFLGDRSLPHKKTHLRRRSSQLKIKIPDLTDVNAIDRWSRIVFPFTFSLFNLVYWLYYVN
Sequence of MT1 Receptor (P48039 whole entry): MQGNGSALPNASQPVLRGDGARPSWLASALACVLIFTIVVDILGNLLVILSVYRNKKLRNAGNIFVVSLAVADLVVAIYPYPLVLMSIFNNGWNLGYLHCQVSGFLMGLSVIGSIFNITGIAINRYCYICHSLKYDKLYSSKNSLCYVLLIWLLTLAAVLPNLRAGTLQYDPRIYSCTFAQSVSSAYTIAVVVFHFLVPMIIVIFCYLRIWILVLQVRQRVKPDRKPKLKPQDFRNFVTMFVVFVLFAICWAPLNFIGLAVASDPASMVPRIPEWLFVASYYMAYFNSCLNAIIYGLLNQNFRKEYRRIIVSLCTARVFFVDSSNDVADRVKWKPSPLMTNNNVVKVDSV
Sequence of human Melatonin receptor 1 (MT1) (P48039 whole entry): as above

Structure (SMILES)	EC100 concentration [1]	inhibition at 1 µM (MT1 Receptor)	Relative Potentiation for GABAA1 [2]	Relative Potentiation for GABAA2 [3]
COc1ccc2[nH]c(I)c(CCNC(C)=O)c2c1 [2-Iodomelatonin]	3 nM			
CCCNC(=O)c1nnc2c(-c3cnccc3OC)cccc2c1N		82%		
CCCNC(=O)c1nnc2c(-c3c(F)cccc3OC)cccc2c1N [drawing 423]		89%		
CCCNC(=O)c1nnc2c(-c3cc(F)cc(F)c3OC)c(F)ccc2c1N			0.1	0.14
CCCNC(=O)c1nnc2c(-c3cnc(OC)nc3OC)c(Cl)ccc2c1N			0.19	0.29
CCNC(=O)c1nnc2c(-c3cnccc3OC)cccc2c1N			−0.02	0.28
CCCNC(=O)c1nnc2c(-c3cccc(F)c3OC)cccc2c1N			0.11	0.11
CCCNC(=O)c1nnc2c(-c3cccc(OC)c3F)c(F)ccc2c1N			0.05	0.23
CCCNC(=O)c1nnc2c(-c3ccc(OC)c(F)c3)cccc2c1N			0.03	0.19
CCCNC(=O)c1nnc2c(-c3cc(C(F)(F)F)cc(C(F)(F)F)c3)cccc2c1N			0.44	0.13
CCCCNC(=O)c1nnc2c(-c3cnc(OC)nc3OC)cccc2c1N			0.16	0.45
CCCNC(=O)c1nnc2c(-c3ccccc3)c(Cl)ccc2c1N			0.25	0.16
CCCNC(=O)c1nnc2c(-c3cccc(Cl)c3)cccc2c1N			0.18	0.53
CCCNC(=O)c1nnc2c(-c3ccccn3)cccc2c1N			0.027	−0.032
CCCNC(=O)c1nnc2c(-c3cnc(OC)c(F)c3)cccc2c1N			−0.012	0.14
CCCNC(=O)c1nnc2c(-c3cc(C)ccc3C)c(F)ccc2c1N			0.21	0.28
COc1ccncc1-c1cccc2c(N)c(C(=O)NC3CC3)nnc12			0.077	0.337
CCCNC(=O)c1nnc2c(-c3ccc(C)nc3)cccc2c1N			−0.16	0.14
CCCNC(=O)c1nnc2c(-c3cnc4ccccc4c3)cccc2c1N			−0.15	0.11
CCCNC(=O)c1nnc2c(-c3cnccc3C)cccc2c1N			0.083	0.11
CCCNC(=O)c1nnc2c(-c3cc(OC)ccc3C)cccc2c1N			0.1	0.22
CCCNC(=O)c1nnc2c(-c3ccccc3C(F)(F)F)cccc2c1N			0.12	0.063
CCCNC(=O)c1nnc2c(-c3cccc(C)c3C)c(F)ccc2c1N			0.11	0.13
CCCNC(=O)c1nnc2c(-c3ccc(F)c(F)c3)cccc2c1N			−0.14	0.12
